Measured values published in US5876694A, “Azavesamicols” (priority 1997, dated 1999).
Where two headings read alike, the source gives them in different places.

Legend:
Type in all cases: in vivo, male Wistar rats
[1] = Blocking experiment 1: co-injection of (dl)-vesamicol with radiotracer; details: rat, iv, 60 min
Experimental: (§1) Two separate experiments each utilizing two groups of male Wistar rats (n=3) were performed.
(§2) Experiment 1. Animals in Group 1 (control) each received an intravenous injection of the radiotracer (4.7 uCi in 100 uL of 50% aq. EtOH). […] At 60 min post-injection, the animals were sacrificed and the tissues were harvested as outlined above.
(§3) Animals in Group 1 received a single i.v. injection of radiotracer.
(§4) Animals in Group 2 were administered with a mixture of the radiotracer an
(§5) All animals were sacrificed a
(§6) 60 min postradiotracer injection.

vesamicol receptor [2] = experiment: as above; details: 60 min, iv
Experimental: as §1, §2, §3, §4, §5, §6

[3] = Blocking experiment 2: effect of vesamicol pretreatment on radiotracer accumulation; details: rat, iv, 2 uCi, 30 min postradiotracer
Experimental: (§7) Two separate experiments each utilizing two groups of male Wistar rats (n=3) were performed. […]
(§8) At time = 0, animals in group 1 injected intravenously with vehicle (50%)
(§9) aq. EtOH; 0.2 ml), while animals in group 2 each received an i.v.
(§10) injection of (dl)vesamicol. HCl (1.01 umol/Kg0). After 15 min, both group
(§11) were injected with the radiotracer, allowed to recover and sacrificed 30
(§12) min postradiotracer injection.

vesamicol receptor [4] = experiment: as above; details: 30 min postradiotracer
Experimental: as §7, §8, §9, §10, §11, §12

vesamicol receptor [5] = experiment: Ex vivo autoradiography of rat brain; details: 3 hrs after iv
Experimental: Ex-vivo Autoradiographic Studies
Two groups of male Wistar rats (n=2) were used in these experiments. Each animal in the first group received an i.v. injection of (+)-[^125 I]12h (385 uCi in 0.1/ml of 50% aq. EtOH). Similarly, animals in the second group received 330 uCi of (-)-[^125 I]12h (in 0.1 ml of 50% aq. EtOH). After 3 hrs, the animals were sacrificed by decapitation. The brains were carefully removed, embedded in Tissue Tek OCT medium and frozen to […] Twenty micron thick coronal brain slices were subsequently obtained by sectioning rostrocaudally with a Reichert HistoSTAT microtome at -15°. The tissue sections were apposed to Kodak NMC film accompanied by ^125 I-labeled external standards (^125 I-Microscales from Amersham). For delineation of cytoarchitecture, adjacent tissue sections were subjected to Nissl staining.

[6] = Group 2: with (dl)vesamicol hydrochloride
[7] = Group 2: (dl)vesamicol.HCl 1.01 umol/Kg pretreatment

O[C@@H]1CCN(Cc2cccc([125I])c2)C[C@H]1N1CCC(c2ccccc2)CC1 (single isomer, unassigned) [(-)-[^125 I]12h, (+)- and (-)-4-hydroxy-1-(3-[I^125]iodobenzyl)-3-(4-phenyl-piperidinyl)piperidine]
tissue uptake at 1 h ([1]; blood, Group 1: radiotracer alone, read-out: Blocking study, blood): 0.09 %ID/g | tissue uptake at 1 h ([1]; blood, Group 2: with (dl)vesamicol hydrochloride, read-out: Blocking study, blood): 0.09 %ID/g | tissue uptake at 1 h ([1]; brain, Group 1: radiotracer alone, read-out: Blocking study, brain): 0.97 %ID/g | tissue uptake at 1 h ([1]; brain, Group 2: with (dl)vesamicol hydrochloride, read-out: Blocking study, brain): 0.29 %ID/g | tissue uptake at 1 h ([1]; gonads, Group 1: radiotracer alone, read-out: Blocking study, gonads): 0.21 %ID/g | tissue uptake at 1 h ([1]; gonads, Group 2: with (dl)vesamicol hydrochloride, read-out: Blocking study, gonads): 0.22 %ID/g | tissue uptake at 1 h ([1]; heart, Group 1: radiotracer alone, read-out: Blocking study, heart): 0.5 %ID/g | tissue uptake at 1 h ([1]; heart, Group 2: with (dl)vesamicol hydrochloride, read-out: Blocking study, heart): 0.16 %ID/g | tissue uptake at 1 h ([1]; kidney, Group 1: radiotracer alone, read-out: Blocking study, kidney): 3.11 %ID/g | tissue uptake at 1 h ([1]; kidney, Group 2: with (dl)vesamicol hydrochloride, read-out: Blocking study, kidney): 0.89 %ID/g | tissue uptake at 1 h ([1]; liver, Group 1: radiotracer alone, read-out: Blocking study, liver): 2.45 %ID/g | tissue uptake at 1 h ([1]; liver, Group 2: with (dl)vesamicol hydrochloride, read-out: Blocking study, liver): 2.31 %ID/g | tissue uptake at 1 h ([1]; lung, Group 1: radiotracer alone, read-out: Blocking study, lung): 1.96 %ID/g | tissue uptake at 1 h ([1]; lung, Group 2: with (dl)vesamicol hydrochloride, read-out: Blocking study, lung): 0.76 %ID/g | tissue uptake at 1 h ([1]; muscle, Group 1: radiotracer alone, read-out: Blocking study, muscle): 0.26 %ID/g | tissue uptake at 1 h ([1]; muscle, Group 2: with (dl)vesamicol hydrochloride, read-out: Blocking study, muscle): 0.12 %ID/g | tissue uptake at 1 h ([1]; spleen, Group 1: radiotracer alone, read-out: Blocking study, spleen): 1.1 %ID/g | tissue uptake at 1 h ([1]; spleen, Group 2: with (dl)vesamicol hydrochloride, read-out: Blocking study, spleen): 0.58 %ID/g | tissue uptake at 1 h ([1]; thyroid, Group 1: radiotracer alone, read-out: Blocking study, thyroid): 5.58 %ID/g | tissue uptake at 1 h ([1]; thyroid, Group 2: with (dl)vesamicol hydrochloride, read-out: Blocking study, thyroid): 6.55 %ID/g | Blocking study, ratio brain/blood (vesamicol receptor [2]; Group 1: radiotracer alone): 10.44 | Blocking study, ratio heart/blood (vesamicol receptor [2]; Group 1: radiotracer alone): 5.37 | Blocking study, ratio brain/blood (vesamicol receptor [2]; [6]): 3.30 | Blocking study, ratio heart/blood (vesamicol receptor [2]; [6]): 1.87 | tissue uptake at 0.5 h ([3]; blood, Group 1: vehicle pretreatment, read-out: Accumulation after pretreatment, blood): 0.11 %ID/g | tissue uptake at 0.5 h ([3]; blood, Group 2: (dl)vesamicol.HCl 1.01 umol/Kg pretreatment, read-out: Accumulation after pretreatment, blood): 0.12 %ID/g | tissue uptake at 0.5 h ([3]; brain, Group 1: vehicle pretreatment, read-out: Accumulation after pretreatment, brain): 0.68 %ID/g | tissue uptake at 0.5 h ([3]; brain, Group 2: (dl)vesamicol.HCl 1.01 umol/Kg pretreatment, read-out: Accumulation after pretreatment, brain): 0.34 %ID/g | tissue uptake at 0.5 h ([3]; gonads, Group 1: vehicle pretreatment, read-out: Accumulation after pretreatment, gonads): 0.15 %ID/g | tissue uptake at 0.5 h ([3]; gonads, Group 2: (dl)vesamicol.HCl 1.01 umol/Kg pretreatment, read-out: Accumulation after pretreatment, gonads): 0.16 %ID/g | tissue uptake at 0.5 h ([3]; heart, Group 1: vehicle pretreatment, read-out: Accumulation after pretreatment, heart): 0.59 %ID/g | tissue uptake at 0.5 h ([3]; heart, Group 2: (dl)vesamicol.HCl 1.01 umol/Kg pretreatment, read-out: Accumulation after pretreatment, heart): 0.3 %ID/g | tissue uptake at 0.5 h ([3]; kidney, Group 1: vehicle pretreatment, read-out: Accumulation after pretreatment, kidney): 2.45 %ID/g | tissue uptake at 0.5 h ([3]; kidney, Group 2: (dl)vesamicol.HCl 1.01 umol/Kg pretreatment, read-out: Accumulation after pretreatment, kidney): 1.13 %ID/g | tissue uptake at 0.5 h ([3]; liver, Group 1: vehicle pretreatment, read-out: Accumulation after pretreatment, liver): 1.91 %ID/g | tissue uptake at 0.5 h ([3]; liver, Group 2: (dl)vesamicol.HCl 1.01 umol/Kg pretreatment, read-out: Accumulation after pretreatment, liver): 1.89 %ID/g | tissue uptake at 0.5 h ([3]; lung, Group 1: vehicle pretreatment, read-out: Accumulation after pretreatment, lung): 2.36 %ID/g | tissue uptake at 0.5 h ([3]; lung, Group 2: (dl)vesamicol.HCl 1.01 umol/Kg pretreatment, read-out: Accumulation after pretreatment, lung): 1.59 %ID/g | tissue uptake at 0.5 h ([3]; muscle, Group 1: vehicle pretreatment, read-out: Accumulation after pretreatment, muscle): 0.18 %ID/g | tissue uptake at 0.5 h ([3]; muscle, Group 2: (dl)vesamicol.HCl 1.01 umol/Kg pretreatment, read-out: Accumulation after pretreatment, muscle): 0.16 %ID/g | tissue uptake at 0.5 h ([3]; spleen, Group 1: vehicle pretreatment, read-out: Accumulation after pretreatment, spleen): 1.05 %ID/g | tissue uptake at 0.5 h ([3]; spleen, Group 2: (dl)vesamicol.HCl 1.01 umol/Kg pretreatment, read-out: Accumulation after pretreatment, spleen): 0.8 %ID/g | tissue uptake at 0.5 h ([3]; thyroid, Group 1: vehicle pretreatment, read-out: Accumulation after pretreatment, thyroid): 2.62 %ID/g | tissue uptake at 0.5 h ([3]; thyroid, Group 2: (dl)vesamicol.HCl 1.01 umol/Kg pretreatment, read-out: Accumulation after pretreatment, thyroid): 4.56 %ID/g | Accumulation after pretreatment, ratio brain/blood (vesamicol receptor [4]; Group 1: vehicle pretreatment): 6.45 | Accumulation after pretreatment, ratio heart/blood (vesamicol receptor [4]; Group 1: vehicle pretreatment): 5.59 | Accumulation after pretreatment, ratio brain/blood (vesamicol receptor [4]; [7]): 2.75 | Accumulation after pretreatment, ratio heart/blood (vesamicol receptor [4]; [7]): 2.40 | brain regional distribution: cortex, caudate-putamen, hippocampus and red nucleus (vesamicol receptor [5]): high levels of radioactivity | levels in cortex compared with caudate-putamen (vesamicol receptor [5]): slightly higher than those observed in the caudate-putamen
